Source: patent US12649751B2 (Arcus Biosciences, Inc., priority 2022, dated 2026)
pIC50: −log10 of the molar value.

The molecules below were run against HPK1 (Homo sapiens, UniProt Q92918) (assay: HPK1 Biochemical Assay (ADP-Glo luminescence; low ATP 10 μM or high ATP 200 μM)). Conditions: 2 nM HPK1, 10 μM ATP; read-out: Biochemical Potency (low ATP).
Procedure: Dose-response assays were performed in Corning® Low Volume 384-well assay plates containing 100 nL of 22 serial 2-fold compound dilutions. Wells containing DMSO alone were used as negative control. A kinase mixture (5 μL) containing 2 nM HPK1 (or 5 nM for high ATP assay) in assay buffer (50 mM Hepes pH 7.4, 10 mM MgCl2, 0.01% Brij-15, 0.01% bovine serum albumin, and 1 mM dithiothreitol) was added to the assay plates and incubated at 25° C. for 1 hour. Wells without HPK1 were used as positive control. A […] of 10 μM ATP (or 200 μM for high ATP) and 0.2 μg/μL […] was then added to the wells, resulting in a 10 μL total reaction volume. Following incubation of the assay plates at 25° C. for 1 hour, 10 μL of ADP-Glo reagent was added to the wells and the plates were incubated at 25° C. for a further 40 minutes (or 1 hour for high ATP assay). Finally, 20 μL of Kinase Detection Reagent was added, and the plates were incubated for another 30 minutes at 25° C. An Envision plate reader was then used to detect the luminescence signals. IC50 values were determined by fitting the data to a standard 4-parameter logistic equation. The results are summarized in the Biochemical Potency columns of Tables 4 and 5 below (Biochemical Potency (high ATP); Biochemical Potency (low ATP)).

HPK1, sequence (Q92918 whole entry, species assumed): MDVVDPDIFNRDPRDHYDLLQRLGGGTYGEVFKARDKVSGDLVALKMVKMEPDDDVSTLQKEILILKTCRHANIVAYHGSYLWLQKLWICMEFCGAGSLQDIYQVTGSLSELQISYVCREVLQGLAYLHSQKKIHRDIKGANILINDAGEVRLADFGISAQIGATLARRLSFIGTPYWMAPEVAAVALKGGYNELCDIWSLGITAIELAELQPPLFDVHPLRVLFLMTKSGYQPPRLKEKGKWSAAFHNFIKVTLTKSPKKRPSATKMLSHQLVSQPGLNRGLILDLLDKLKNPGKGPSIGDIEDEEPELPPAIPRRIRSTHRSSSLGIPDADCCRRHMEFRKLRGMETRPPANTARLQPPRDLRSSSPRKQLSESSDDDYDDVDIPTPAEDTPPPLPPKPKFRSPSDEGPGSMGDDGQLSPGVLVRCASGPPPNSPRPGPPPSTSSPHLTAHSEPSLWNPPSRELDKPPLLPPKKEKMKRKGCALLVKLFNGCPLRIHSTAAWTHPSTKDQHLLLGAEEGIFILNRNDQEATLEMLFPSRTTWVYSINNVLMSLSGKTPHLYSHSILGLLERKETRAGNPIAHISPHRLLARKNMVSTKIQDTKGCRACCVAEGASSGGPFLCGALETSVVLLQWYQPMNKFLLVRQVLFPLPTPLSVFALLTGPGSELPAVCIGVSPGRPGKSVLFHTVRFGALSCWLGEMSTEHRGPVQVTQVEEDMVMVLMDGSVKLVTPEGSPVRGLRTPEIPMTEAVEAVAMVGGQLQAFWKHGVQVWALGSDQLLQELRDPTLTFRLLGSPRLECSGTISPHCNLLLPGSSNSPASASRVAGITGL

pIC50 | SMILES
> 7.00 | Cc1cccnc1-c1nc2cc(Nc3ccc(C4CCOCC4)c(NCc4nccn4C)n3)ncc2s1 [Example 251, N2-[(1-Methyl-1H-imidazol-2-yl)methyl]-N6-[2-(3-methylpyridin-2-yl)-[1,3]thiazolo[5,4-c]pyridin-6-yl]-3-(oxan-4-yl)pyridine-2,6-diamine]
> 7.00 | FC1(F)CCN(Cc2nc(Nc3cc4nc(-c5ccncc5)sc4cn3)ccc2C2CCOCC2)C1 [Example 218, 6-[(3,3-Difluoropyrrolidin-1-yl)methyl]-5-(oxan-4-yl)-N-[2-(pyridin-4-yl)-[1,3]thiazolo[5,4-c]pyridin-6-yl]pyridin-2-amine]
> 7.00 | c1cc(-c2nc3cc(Nc4ccc(C5CCOCC5)c(CN5CCOCC5)n4)ncc3s2)ccn1 [Example 219, 6-[(Morpholin-4-yl)methyl]-5-(oxan-4-yl)-N-[2-(pyridin-4-yl)-[1,3]thiazolo[5,4-c]pyridin-6-yl]pyridin-2-amine]
> 7.00 | CN1C[C@@H]2C[C@H]1CN2c1cncc(Nc2cc3nc(-c4ccncc4)sc3cn2)n1 [Example 146, 6-[(1S,4S)-5-Methyl-2,5-diazabicyclo[2.2.1]heptan-2-yl]-N-[2-(pyridin-4-yl)-[1,3]thiazolo[5,4-c]pyridin-6-yl]pyrazin-2-amine]
> 7.00 | CN1C[C@@H]2C[C@H]1CN2c1nccc(Nc2cc3nc(-c4ccnc(N5CC[C@@H](F)C5)c4)sc3cn2)n1 [Example 267, N-(2-{2-[(3R)-3-Fluoropyrrolidin-1-yl]pyridin-4-yl}-[1,3]thiazolo[5,4-c]pyridin-6-yl)-2-[(1S,4S)-5-methyl-2,5-diazabicyclo[2.2.1]heptan-2-yl]pyrimidin-4-amine]
> 7.00 | Cc1ncccc1-c1nc2cc(Nc3cccc(N4C[C@@H]5C[C@H]4CN5C)n3)ncc2s1 [Example 138, 6-[(1S,4S)-5-Methyl-2,5-diazabicyclo[2.2.1]heptan-2-yl]-N-[2-(2-methylpyridin-3-yl)-[1,3]thiazolo[5,4-c]pyridin-6-yl]pyridin-2-amine]
> 7.00 | Cc1cc(Nc2cc3nc(-c4ccncc4)sc3cn2)nc(O[C@H]2CCNC2)c1 [Example 166, 4-Methyl-N-[2-(pyridin-4-yl)-[1,3]thiazolo[5,4-c]pyridin-6-yl]-6-[(3S)-pyrrolidin-3-yloxy]pyridin-2-amine]
> 7.00 | Cc1cccnc1-c1nc2cc(Nc3ccc(C)c(N4C[C@H]5CC[C@@H](C4)[C@H]5O)n3)ncc2s1 [Example 106, (1R,5S,8S)-3-(3-Methyl-6-{[2-(3-methylpyridin-2-yl)-[1,3]thiazolo[5,4-c]pyridin-6-yl]amino}pyridin-2-yl)-3-azabicyclo[3.2.1]octan-8-ol]
6.00 to 7.00 | C[C@@H]1CCCN1c1nc2cc(Nc3ccc(C4CCOCC4)c(CN4CCCC4)n3)ncc2s1 [Example 229, N-{2-[(2R)-2-Methylpyrrolidin-1-yl]-[1,3]thiazolo[5,4-c]pyridin-6-yl}-5-(oxan-4-yl)-6-[(pyrrolidin-1-yl)methyl]pyridin-2-amine]
> 7.00 | CS(=O)(=O)Nc1cccc(-c2nc3cc(Nc4cccc(N5C[C@@H]6C[C@H]5CN6)n4)ncc3s2)c1 [Example 287, N-{3-[6-({6-[(1S,4S)-2,5-diazabicyclo[2.2.1]heptan-2-yl]pyridin-2-yl}amino)-[1,3]thiazolo[5,4-c]pyridin-2-yl]phenyl}methanesulfonamide]

Further lines, the molecule ahead of its results:

SMILES | pIC50
CN(C)C(=O)c1cc(-c2nc3cc(Nc4ccnc(N5C[C@@H]6C[C@H]5CN6C)n4)ncc3s2)ccn1 [Example 127, N,N-Dimethyl-4-[6-({2-[(1S,4S)-5-methyl-2,5-diazabicyclo[2.2.1]heptan-2-yl]pyrimidin-4-yl}amino)-[1,3]thiazolo[5,4-c]pyridin-2-yl]pyridine-2-carboxamide] | > 7.00
Cc1cc(Nc2cc3nc(-c4ccncc4C)sc3cn2)nc(O[C@H]2CCNC2)c1 [Example 169, 4-Methyl-N-[2-(3-methylpyridin-4-yl)-[1,3]thiazolo[5,4-c]pyridin-6-yl]-6-[(3S)-pyrrolidin-3-yloxy]pyridin-2-amine] | > 7.00
Cc1cc(Nc2cc3nc(N4CCC[C@H](O)C4)sc3cn2)nc(O[C@H]2CCNC2)c1 [Example 192, (3S)-1-(6-{[4-Methyl-6-((3S)-pyrrolidin-3-yloxy)pyridin-2-yl]amino}-[1,3]thiazolo[5,4-c]pyridin-2-yl)piperidin-3-ol] | > 7.00
CCNCc1nc(Nc2cc3nc(-c4c(C)cccc4F)sc3cn2)ccc1N1CCC(F)(F)C1 [Example 279, 5-(3,3-Difluoropyrrolidin-1-yl)-6-[(ethylamino)methyl]-N-[2-(2-fluoro-6-methylphenyl)-[1,3]thiazolo[5,4-c]pyridin-6-yl]pyridin-2-amine] | > 7.00
c1cc(C2CCOCC2)c(CN2CCCC2)nc1Nc1cc2nc(N3C[C@H]4C[C@@H]3CO4)sc2cn1 [Example 238, N-{2-[(1R,4R)-2-Oxa-5-azabicyclo[2.2.1]heptan-5-yl]-[1,3]thiazolo[5,4-c]pyridin-6-yl}-5-(oxan-4-yl)-6-[(pyrrolidin-1-yl)methyl]pyridin-2-amine] | 6.00 to 7.00
Cc1cccnc1-c1nc2cc(Nc3cccc(N4CCN(C)[C@H](C)C4)n3)ncc2s1 [Example 104, 6-[(3R)-3,4-Dimethylpiperazin-1-yl]-N-[2-(3-methylpyridin-2-yl)-[1,3]thiazolo[5,4-c]pyridin-6-yl]pyridin-2-amine] | > 7.00
Cc1cccnc1-c1nc2cc(Nc3cccc(N4CC5CCC(C4)N5C)n3)ncc2s1 [Example 107, 6-{8-Methyl-3,8-diazabicyclo[3.2.1]octan-3-yl}-N-[2-(3-methylpyridin-2-yl)-[1,3]thiazolo[5,4-c]pyridin-6-yl]pyridin-2-amine] | > 7.00
c1cc(C2CCOCC2)c(CN2CCCC2)nc1Nc1cc2nc(N3C[C@@H]4C[C@H]3CO4)sc2cn1 [Example 211] | 6.00 to 7.00
COC1CCN(c2nc3cc(Nc4cc(C)cc(O[C@H]5CCNC5)n4)ncc3s2)CC1 [Example 190, N-[2-(4-Methoxypiperidin-1-yl)-[1,3]thiazolo[5,4-c]pyridin-6-yl]-4-methyl-6-((3S)-pyrrolidin-3-yloxy)pyridin-2-amine] | > 7.00
O[C@@H]1CCN(c2nc3cc(Nc4ccc(C5CCOCC5)c(CN5CCCC5)n4)ncc3s2)C1 [Example 234, (3R)-1-(6-{[5-(Oxan-4-yl)-6-[(pyrrolidin-1-yl)methyl]pyridin-2-yl]amino}-[1,3]thiazolo[5,4-c]pyridin-2-yl)pyrrolidin-3-ol] | 6.00 to 7.00

Same assay, conditions: HPK1 ADP-Glo assay, low ATP (10 μM ATP, 2 nM HPK1); read-out: Biochemical Potency (low ATP)

pIC50 | SMILES
> 7.00 | Cc1cccnc1-c1nc2cc(Nc3ccc4c(n3)[C@@H](N)CCC4)ncc2s1 [Example 583]
> 7.00 | CN1C[C@@H]2C[C@H]1CN2c1nccc(Nc2cc3nc(-c4cccc(C(C)(C)O)c4)sc3cn2)n1 [Example 419]
> 7.00 | Cc1ccnn1-c1nc2cc(Nc3ccc4c(n3)C(C)(N)CC4)ncc2s1 (stereo not shown) [Example 579]

Second part, the molecule before the results:

SMILES | pIC50
CC(C)(O)c1cccc(-c2nc3cc(Nc4cc(C5CCOCC5)nc(N5C[C@@H]6C[C@H]5CN6)n4)ncc3s2)c1 [Example 442] | > 7.00
Cc1cccnc1-c1nc2cc(Nc3cccc(C4(O)C[C@@H]5CC4CN5)n3)ncc2s1 (stereo partly shown) [Example 314, 5-{6-[2-(3-methyl-2-pyridyl)-3-thia-1,5-diaza-6-indenylamino]-2-pyridyl}-2-azabicyclo[2.2.1]heptan-5-ol] | > 7.00
